# Data reported in patent publication US11278582B2, “Compositions containing plant extracts and applications thereof” (TCI CO., LTD., priority 2017, dated 2022).
# Test system: adipocytes differentiated from OP9 mouse stromal cell line (ATCC CRL-2749)
# Assay: Oil red O staining of the fat content of adipocytes treated with plant extracts or combinations
# Type: cell-based
# Conditions: for Relative fat content: 7-10 days, relative to control group (100%)
# Method: The neutral fat content of cells was determined by oil red O staining. Prior to staining, the cells were washed twice with PBS and then fixed with 10% formaldehyde at room temperature for 30 minutes. The fixed cells were washed twice with PBS and rinsed with 60% isopropanol for 1 minute. Thereafter, the cells were stained with an oil red O staining solution (1.8 mg/ml oil red O dissolved in 60% isopropanol aqueous solution) for 1 hour, and then treated with 60% isopropanol for 5 seconds to remove excess dye. Lastly, 100% isopropanol was added to the cells and incubated with shaking for 10 minutes to dissolve the intracellular dye, and the absorbance of the cell suspension at 510 nm was measured using an ELISA (enzyme-linked immunosorbent assay) reader (BioTek). The statistical significance of differences between data was determined by Student's t-test using the Excel software.
# Briefly, OP9 cells were seeded at 8×10^4 cells/well in 24-well culture plates, where each well contained 500 μl of pre-adipocyte expansion medium (90% DMEM, 20% FBS, and 1% penicillin/streptomycin), and cultured at 37° C. for 7 days. The medium was refreshed every 3 days during cell culture with adipocyte differentiation medium (90% DMEM medium, 20% FBS, and 1% penicillin/streptomycin). After 7 days, complete differentiation into adipocytes were confirmed by examining oil droplets formed in the cells using a microscope (ZEISS; at 400× magnification). Thereafter, each of the plant extracts or each of the compositions containing plant extracts, listed in TABLE 1, was added to the cells, which were then cultured at 37° C. for 7-10 days, during which the adipocyte differentiation medium was refreshed every 3 days. Finally, the medium was removed, and the cells of each group were washed with PBS and subjected to oil red O staining for determination of the fat content. The relative fat content is a ratio of the cellular fat content of the experimental group relative to that of the control group (expressed as a percentage). […]
SMILES,Relative fat content (single treatment 0.015625 mg/ml) [%],Relative fat content (single treatment 0.5 mg/ml) [%],"Change of the fat content of adipocytes compared to the control group (in words) (sole treatment, concentrations as in TABLE 1, Student's t-test)"
CC(C)=CCC/C(C)=C/C=C/C(C)=C/C=C/C(C)=C/C=C/C=C(C)/C=C/C=C(C)/C=C/C=C(\C)CCC=C(C)C [Lycopene],73.34,–,–
CC1=C(/C=C/C(C)=C/C=C/C(C)=C/C=C/C=C(C)/C=C/C=C(C)/C=C/C2=C(C)CCCC2(C)C)C(C)(C)CCC1 [β-carotene],–,99.00,did not significantly reduce the fat content
